Where two headings read alike, the source gives them in different places.
Key:
MMP-2 = target: T1, MMP-2 (Homo sapiens, UniProt P08253); assay: In vitro MMP inhibition, Ki determination (fluorogenic substrate II); format: biochemical; settings: read-out: MMP-2 Ki
T1 construct: made in house; host or cells: MMP-2-transfected p2AHT2 cells
T1 sequence (P08253 110-660): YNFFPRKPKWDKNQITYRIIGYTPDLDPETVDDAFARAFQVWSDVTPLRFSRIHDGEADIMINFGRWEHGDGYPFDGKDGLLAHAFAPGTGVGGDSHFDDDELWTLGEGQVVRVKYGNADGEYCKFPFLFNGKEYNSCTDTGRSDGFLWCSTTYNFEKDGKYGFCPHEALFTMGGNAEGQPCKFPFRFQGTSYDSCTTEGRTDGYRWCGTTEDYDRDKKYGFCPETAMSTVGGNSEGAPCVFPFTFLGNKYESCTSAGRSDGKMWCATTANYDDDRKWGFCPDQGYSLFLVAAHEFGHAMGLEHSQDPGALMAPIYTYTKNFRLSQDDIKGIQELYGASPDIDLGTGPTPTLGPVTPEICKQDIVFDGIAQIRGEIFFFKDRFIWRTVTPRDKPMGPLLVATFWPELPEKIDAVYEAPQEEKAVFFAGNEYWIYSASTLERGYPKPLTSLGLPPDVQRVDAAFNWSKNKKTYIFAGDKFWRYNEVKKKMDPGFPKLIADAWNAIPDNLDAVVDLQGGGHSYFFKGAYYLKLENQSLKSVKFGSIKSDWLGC

MMP-14 = target: T2, MMP-14 (Homo sapiens, UniProt P50281); assay: as above; format: biochemical; settings: read-out: MMP-14 Ki
T2 construct: The catalytic domain enzyme was expressed in E. coli inclusion bodies, solubilized in urea; made in house
Method in brief: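 E. coli-expressed, refolded MMP-14 catalytic domain, activated with APMA or trypsin, in 100 mM Tris-HCl pH 7.5, 100 mM NaCl, 10 mM CaCl2, 0.05% Brij-type detergent. Apparent Ki by Morrison-equation regression of velocity vs inhibitor and enzyme concentration.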

Ki (MMP-2; value outside parentheses) [nM] | Ki (MMP-14; value outside parentheses) [nM] | Ki (MMP-14; value not in parenthesis) [nM] | Ki (MMP-2; value not in parenthesis) [nM] | Compound
0.83 |  |  |  | CCCCCC/C=C/C1CCN(S(=O)(=O)C2(C(=O)NO)CCOCC2)CC1 [Example 402]
1.76 | 1190 |  |  | CCCCCCCOC1CCN(S(=O)(=O)C2(C(=O)NO)CCOCC2)CC1 [Example 406]
12.8 | 2720 |  |  | CCCCCC/C=C\C1CCN(S(=O)(=O)C2(C(=O)NO)CCOCC2)CC1 [Example 401]
 |  | 1120 | 2.52 | O=C(NO)C1(S(=O)(=O)N2CCN(c3ncc(-c4ccc(Cl)cc4)cn3)CC2)CCOCC1 [Example 66]
1.27 | 95.7 |  |  | O=C(NO)C1(S(=O)(=O)N2CCC(COCc3ccc(SC(F)(F)F)cc3)CC2)CCOCC1 [Example 405]
4.96 | 129 |  |  | O=C(NO)C1(S(=O)(=O)N2CCC(COCc3ccc(C(F)(F)F)cc3)CC2)CCOCC1 [Example 403]
0.71 | 724 |  |  | CCCC#Cc1cnc(N2CCN(S(=O)(=O)C3(C(=O)NO)CCOCC3)CC2)s1 [Example 400]
 |  | 1660 | 2.94 | CCCCc1cnc(N2CCN(S(=O)(=O)C3(C(=O)NO)CCOCC3)CC2)nc1 [Example 105]
1.31 | 514 |  |  | O=C(NO)C1(S(=O)(=O)N2CCC(c3ccc(OCc4ccccc4)cn3)CC2)CCOCC1 [Example 398]
 |  | 534 | 0.15 | CCCCc1ccc(N2CCN(S(=O)(=O)C3(C(=O)NO)CCOCC3)CC2)nc1 [Example 168]
181 | > 10000 |  |  | CCCCc1ccc(C2(O)CCN(S(=O)(=O)C3(C(=O)NO)CCOCC3)CC2)nc1 [Example 420]
1.41 | 71.8 |  |  | O=C(NO)C1(S(=O)(=O)N2CCC(COCc3ccc(OC(F)(F)F)cc3)CC2)CCOCC1 [Example 404]
2880 | > 10000 |  |  | O=C(NO)C1(S(=O)(=O)N2CCN(c3nc(-c4ccccc4)cs3)CC2)CCOCC1 [Example 415]
4.13 | 1300 |  |  | O=C(NO)C1(S(=O)(=O)N2CCC(c3ccc(-c4cccc(F)c4)cn3)CC2)CCOCC1 [Example 417]
15.3 | > 10000 |  |  | CCC(F)(F)CCc1ccc(C2CCN(S(=O)(=O)C3(C(=O)NO)CCOCC3)CC2)cn1 [Example 411]
24.3 | 1770 |  |  | O=C(NO)C1(S(=O)(=O)N2CCC(c3ccc(-c4ccccn4)cn3)CC2)CCOCC1 [Example 409]
6010 | > 10000 |  |  | Cc1cccc(-c2csc(N3CCN(S(=O)(=O)C4(C(=O)NO)CCOCC4)CC3)n2)c1 [Example 413]
0.05 | 9.69 |  |  | N#Cc1ccc(-c2cnc(N3CCN(S(=O)(=O)C4(C(=O)NO)CCOCC4)CC3)s2)cc1 [Example 399]
2.07 | 506 |  |  | Cc1ccc(-c2ccc(C3CCN(S(=O)(=O)C4(C(=O)NO)CCOCC4)CC3)nc2)s1 [Example 416]
> 10000 | > 10000 |  |  | Cc1ccc(-c2csc(N3CCN(S(=O)(=O)C4(C(=O)NO)CCOCC4)CC3)n2)cc1 [Example 412]
27.9 | > 10000 |  |  | O=C(NO)C1(S(=O)(=O)N2CCN(c3ccc(-c4nn[nH]n4)cc3)CC2)CCOCC1 [Example 419]
2.23 | 194 |  |  | CCc1ccc(-c2ccc(C3CCN(S(=O)(=O)C4(C(=O)NO)CCOCC4)CC3)nc2)cc1 [Example 393]
0.97 | 5360 |  |  | O=C(NO)C1(S(=O)(=O)N2CCC(c3ccc(OCCC(F)(F)F)cn3)CC2)CCOCC1 [Example 418]
6.48 | 1050 |  |  | O=C(NO)C1(S(=O)(=O)N2CCC(c3ccc(N4CCCC4)cn3)CC2)CCOCC1 [Example 408]
0.69 | 2920 |  |  | CCCCc1ccc(C2CCN(S(=O)(=O)C3(C(=O)NO)CCN(CCOC)CC3)CC2)nc1 [Example 397]
0.55 | 1360 |  |  | CCCCOc1ccc(C2CCN(S(=O)(=O)C3(C(=O)NO)CCOCC3)CC2)nc1 [Example 410]
0.361 | 3030 |  |  | O=C(NO)C1(S(=O)(=O)N2CCC(c3ccc(-c4cccs4)c(F)c3)CC2)CCOCC1 [Example 407]
